From patent US20080275028A1 (priority 2004, published 2008)

Target: T1, alpha7 nicotinic acetylcholine receptor (Rattus norvegicus, UniProt Q05941)
T1 construct: expressed in transfected cells
Test: Functional FLIPR assay (calcium), alpha7 nAChR stably expressed in GH4C1 cells
Format: cell-based
Details: agonist, concentration range 0.001 to 30 microM
Description: Rat GH4C1 cells were then transfected with the rat receptor, cloned and analyzed for functional alpha7 nicotinic receptor expression employing a FLIPR assay to measure changes in intracellular calcium concentrations.
The FLIPR system allows the measurements of real time Ca^2+-concentration changes in living cells using a Ca^2+ sensitive fluorescence dye (such as Fluo4). This instrument enables the screening for agonists and antagonists for alpha 7 nAChR channels stably expressed in GH4C1cells.
GH4C1 cells stably transfected with rat-alpha7-nAChR (see above) were used. These cells are poorly adherent and therefore pretreatment of flasks and plates with poly-D-lysine was carried out. Cells are grown in 150 cm^2 T-flasks, filled with 30 ml of medium at 37° C. and 5% CO2.
EC50 and IC50 values were calculated using the IDBS XLfit4.1 software package employing a sigmoidal concentration-response (variable slope) equation:
Y=Bottom+((Top-Bottom)/(1+((EC50/X) ̂ HillSlope))
The compounds were tested using the functional FLIPR primary screening assay employing the stable recombinant GH4C1 cell line expressing the alpha7 nAChR. Hits identified were validated further by generation of concentration-response curves.

T1 sequence (Q05941 23-502): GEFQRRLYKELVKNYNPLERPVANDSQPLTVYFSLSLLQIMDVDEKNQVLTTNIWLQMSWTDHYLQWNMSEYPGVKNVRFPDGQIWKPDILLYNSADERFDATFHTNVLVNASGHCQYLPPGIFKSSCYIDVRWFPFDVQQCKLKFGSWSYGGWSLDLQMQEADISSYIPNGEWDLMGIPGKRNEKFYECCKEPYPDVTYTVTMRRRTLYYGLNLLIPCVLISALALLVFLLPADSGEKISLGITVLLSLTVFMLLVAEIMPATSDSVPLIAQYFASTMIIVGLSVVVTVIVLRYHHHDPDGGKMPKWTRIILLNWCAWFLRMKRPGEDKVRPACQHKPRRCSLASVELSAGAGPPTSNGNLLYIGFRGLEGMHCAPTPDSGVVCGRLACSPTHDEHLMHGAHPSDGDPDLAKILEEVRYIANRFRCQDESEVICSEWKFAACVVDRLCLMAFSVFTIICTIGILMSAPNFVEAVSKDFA

Q: For `C[N+]1(C)CCN(c2ccccc2)CC1` [DMPP], which EC50 is on record?
A: 980 ± 470 nM
